Experimental data published in ChEMBL document CHEMBL4825768 (ACS Med Chem Lett, 2021).
pIC50: −log10 of the molar value.

How the values were obtained:
GTPase KRas [1] = target: T1, GTPase KRas (Homo sapiens, UniProt P01116, G12C); assay: (§1) Inhibition of GDP-bound KRAS G12C mutant (1 to 169 residues) (unknown origin) assessed as inhibition of SOS-mediated nucleotide exchange pretreated with KRAS for 5 mins followed by incubation with SOS (564 to 1049 residues) and GTP for 30 mins and later incubated with GST-tagged cRAF (1 to 149 residues) for 10 mins by AlphaLISA assay; assay type: single protein
GTPase KRas [2] = target: T1, GTPase KRas; assay: as §1, with “20 hrs” for “5 mins”; assay type: single protein
GTPase KRas [3] = target: T1, GTPase KRas; assay: Inhibition of KRAS G12C mutant in human MIA PaCa-2 cells assessed as reduction in phosphorylated ERK1/2 level incubated for 2 hrs by MSD assay; assay type: cell-based
[4] = tested on: GTPase KRas (Homo sapiens), P01116 [G12D]; assay: Binding affinity to GDP-bound KRAS G12D mutant (unknown origin) assessed as bound fraction at 100 uM incubated for 20 hrs by RF-MS analysis relative to control

## Cc1ccnc(C(C)C)c1-n1c(=O)nc(N2CCN(C(=O)C=O)C[C@@H]2C)c2cc(Cl)c(-c3ccccc3F)nc21
GTPase KRas [1]
  pIC50: 6.21
GTPase KRas [2]
  pIC50: 7.41
GTPase KRas [3]
  pIC50: 6.15

## Cc1ccnc(C(C)C)c1-n1c(=O)nc(N2CCN(C(=O)C3OC3C)C[C@@H]2C)c2cc(Cl)c(-c3ccccc3F)nc21 (some centres undefined)
GTPase KRas [1]
  pIC50: 4.75
GTPase KRas [2]
  pIC50: 7.02

## Cc1ccnc(C(C)C)c1-n1c(=O)nc(N2CCN(C(=O)[C@@H]3O[C@H]3CN3CCCCC3)C[C@@H]2C)c2cc(Cl)c(-c3ccccc3F)nc21
GTPase KRas [1]
  pIC50: 5.95
GTPase KRas [2]
  pIC50: 8.30

## CCOC(=O)[C@@H]1O[C@H]1C(=O)N1CCN(c2nc(=O)n(-c3c(C)ccnc3C(C)C)c3nc(-c4ccccc4F)c(Cl)cc23)[C@@H](C)C1
GTPase KRas [1]
  pIC50: 6.67
GTPase KRas [2]
  pIC50: 8.30
GTPase KRas [3]
  pIC50: 7.02
[4]
  Activity: 3.4%

## Cc1ccnc(C(C)C)c1-n1c(=O)nc(N2CCN(C(=O)[C@@H]3O[C@H]3CO)C[C@@H]2C)c2cc(Cl)c(-c3ccccc3F)nc21
GTPase KRas [1]
  pIC50: 5.20
GTPase KRas [2]
  pIC50: 7.19

## Cc1ccnc(C(C)C)c1-n1c(=O)nc(N2C[C@@H](C)N(C(=O)[C@H]3CO3)C[C@@H]2C)c2cc(Cl)c(-c3c(N)cccc3F)nc21
GTPase KRas [1]
  pIC50: 6.25
GTPase KRas [2]
  pIC50: 7.82
[4]
  Activity: 15.8%

## Cc1ccnc(C(C)C)c1-n1c(=O)nc(N2CCN(C(=O)[C@H]3CO3)C[C@@H]2C)c2cc(Cl)c(-c3ccccc3F)nc21
GTPase KRas [1]
  pIC50: 5.42
GTPase KRas [2]
  pIC50: 7.57
[4]
  Activity: 3.4%

## Cc1ccnc(C(C)C)c1-n1c(=O)nc(N2CC(NC(=O)C3CO3)C2)c2cc(Cl)c(-c3ccccc3F)nc21 (centres undefined)
GTPase KRas [1]
  pIC50: 5.36
GTPase KRas [2]
  pIC50: 7.74

## Cc1ccnc(C(C)C)c1-n1c(=O)nc(N(C)C2CN(C(=O)C3CO3)C2)c2cc(Cl)c(-c3ccccc3F)nc21 (centres undefined)
GTPase KRas [1]
  pIC50: 4.86
GTPase KRas [2]
  pIC50: 6.64

## Cc1ccnc(C(C)C)c1-n1c(=O)nc(N2C[C@@H](C)N(C(=O)[C@H]3CO3)C[C@@H]2C)c2cc(Cl)c(-c3c(O)cccc3F)nc21
GTPase KRas [1]
  pIC50: 6.19
GTPase KRas [2]
  pIC50: 7.62
[4]
  Activity: 8.1%

## COC(=O)/C=C/C(=O)N1CCN(c2nc(=O)n(-c3c(C)ccnc3C(C)C)c3nc(-c4ccccc4F)c(Cl)cc23)[C@@H](C)C1
GTPase KRas [1]
  pIC50: 7.02
GTPase KRas [2]
  pIC50: 7.59
GTPase KRas [3]
  pIC50: 7.21
